Marks after values point to notes of the source that are not given here.
Assays:
standard human plasma = assay: Activated partial thromboplastin time (APTT) in standard human plasma; assay type: biochemical; settings: concentration required for doubling the coagulation time vs vehicle (1% DMSO)
Method: Activated partial thromboplastin time (APTT) and prothrombin time (PT) were measured by using a fully automatic device for measuring blood coagulation (CA-1500, Sysmex Corporation). On APTT or PT measurement, standard human plasma for the blood coagulation tests (Siemens Healthcare Diagnostics GmbH) was mixed with a diluted solution of the compound of the present invention, and thereafter, APTT reagent (Siemens Healthcare Diagnostics GmbH) and 0.02 M of calcium chloride or PT reagent (Siemens Healthcare Diagnostics GmbH) were automatically added to the mixture in order to initiate clot formation. The anticoagulation activity (APTT×2 or PT×2) of the compound of the present invention was expressed as a concentration required for doubling the coagulation time in the vehicle (1% DMSO) group. APTT×2 or PT×2 was determined by plotting the concentration of the compound of the present invention against a twofold increase in the coagulation time.

[1] = Pharmacokinetic (PK) tests in rats; assay type: in vivo; settings: for concentration at 8 h: male, Crj:CD(SD), oral, read-out: Plasma concentration C8h; for concentration at 8 h / AUC: rat, plasma; for AUC: po, fasted male Crj:CD(SD) rats; for APTT × 2 maintaining time: 1 mg/kg orally, period when plasma concentration exceeded APTT×2; for C8h/APTT × 2: C8h divided by APTT×2
Method: The compound of the present invention was administered to fasted male Crj:CD(SD) rats by intravenous injection as a single intravenous dose of 0.1 mg/kg (vehicle: 20% HP-β-CD solution) and by forced oral dosage as a dose of 1 mg/kg per os (vehicle: 0.5% methylcellulose solution). Blood samples were collected from cervical vein into heparinized syringes at 0.08, 0.25, 0.5, 1, 3 or 7 hours after administration by intravenous injection or 0.08, 0.25, 0.5, 1, 2, 4, 6, 8 or 24 hours after oral administration. Plasma was obtained by centrifugation, and plasma was stored at −20° C. until measurement of plasma concentration.
In order to measure the plasma concentration of the compound of the present invention, the plasma sample was subjected to deproteinization by using acetonitrile, was filtrated by using a filter, and thereafter, was diluted with purified water, and then was analyzed by LC/MS/MS. A column for analysis (Shim-pack XR-ODSII, 2.0 mm×75 mm, 2.2 μm) and mobile phases (0.1% formic acid in water and 0.1% formic acid in acetonitrile, flow rate: 0.5 mL/min) were used. The system was used by detection of cations in the Multiple Reaction Monitoring (MRM) mode.
The area under the blood concentration versus time curve (AUC) and the bioavailability (BA) of the compound of the present invention were calculated. In addition, as indices of the maintaining time of the anticoagulation activity in the case of oral administration, AUC/APTT×2, which is obtained by dividing AUC by APTT×2, and C8h/APTT×2, which is obtained by dividing C8h (the plasma concentration at 8 hours after administration) by APTT×2, were calculated.
In addition, the period of time when the compound concentration in plasma of the compound of the present invention exceeded APTT×2 (the APTT×2 maintaining time) was calculated from the change in the compound concentration in plasma in the case when the compound of the present invention was orally administered at a dose of 1 mg/kg. The longer the APTT×2 maintaining time is, the longer the period of time is when the anticoagulation activity is maintained after oral administration.

[2] = target: T1, human blood coagulation factor XIa (Homo sapiens, UniProt P03951); assay: Inhibitory activity on human blood coagulation factor XIa (chromogenic substrate S-2366); assay type: biochemical; settings: chromogenic substrate S-2366, 37° C.; read-out: FXIa inhibitory activity IC50
T1 construct: human blood coagulation factor XIa (Haematologic Technologies Inc.); purchased Haematologic Technologies Inc
Method: Inhibitory activities of the compound of the present invention on human blood coagulation factor XIa, factor VIIa, factor IXa, factor Xa, factor XIIa, plasma kallikrein and thrombin were evaluated. A chromogenic substrate solution was added to each of enzyme solutions, the absorbance at 405 nm was measured continuously at 37° C. for 5 minutes at intervals of 15 seconds, and the decomposition rate of each of substrates (mOD/min) was calculated. The half maximal (50%) inhibitory concentration (IC50) of the compound of the present invention on each of the enzymes was calculated by linear regression by using least-squares method from the concentration of the compound of the present invention which was converted in terms of natural logarithm and the rate of enzyme inhibition calculated according to the following equation.
The rate of enzyme inhibition (%) of the compound of the present invention was calculated by using the following equation: Rate of enzyme inhibition (%)=100×{(Cont(e)−BL(e))−(Comp(e)−BL(e))/(Cont(e)−BL(e))}
Cont (e): Decomposition rate of substrate (mOD/min) when enzyme solution and substrate solution were added to physiological saline containing 5% dimethyl sulfoxide
Comp (e): Decomposition rate of substrate (mOD/min) when enzyme solution and substrate solution were added to physiological saline containing 5% dimethyl sulfoxide and the compound of the present invention
The inhibitory activity on human blood coagulation factor XIa (Haematologic Technologies Inc.) was measured by using the enzyme solution adjusted to 0.1 U/mL by a buffer solution containing 300 mM of NaCl, 10 mM of KCl, 2 mg/mL of PEG 6000 and 100 mM of HEPES-NaOH (pH 7.4) as well as S-2366 (pyroglu-Pro-Arg-pNA, CHROMOGENIX) adjusted to 1 mM by distilled water.

[3] = rats, 1 mg/kg per os, 8 hours after administration

T1 sequence (P03951 388-625 limits assumed): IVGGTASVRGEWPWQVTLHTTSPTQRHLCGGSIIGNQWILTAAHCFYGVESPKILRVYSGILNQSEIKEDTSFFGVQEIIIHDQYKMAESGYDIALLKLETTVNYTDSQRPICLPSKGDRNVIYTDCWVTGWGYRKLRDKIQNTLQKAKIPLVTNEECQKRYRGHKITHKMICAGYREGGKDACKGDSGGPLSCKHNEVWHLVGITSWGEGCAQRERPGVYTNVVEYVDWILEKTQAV
T1 sequence (P03951 19-387 partner limits assumed): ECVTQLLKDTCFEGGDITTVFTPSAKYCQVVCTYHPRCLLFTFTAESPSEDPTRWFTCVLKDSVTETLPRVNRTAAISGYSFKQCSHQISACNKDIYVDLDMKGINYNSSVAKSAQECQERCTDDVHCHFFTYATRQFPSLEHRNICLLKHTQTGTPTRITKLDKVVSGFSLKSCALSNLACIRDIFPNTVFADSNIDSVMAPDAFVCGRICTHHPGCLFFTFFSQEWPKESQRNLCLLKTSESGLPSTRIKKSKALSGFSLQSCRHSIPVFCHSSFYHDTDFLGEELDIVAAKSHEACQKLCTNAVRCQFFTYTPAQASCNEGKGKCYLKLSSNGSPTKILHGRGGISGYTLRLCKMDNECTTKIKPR

Compound	APTT × (standard human plasma) [µM]	concentration at 8 h [1, 3] [nM]	AUC ([1]; 1 mg/kg per os) [µM·h]	APTT × 2 maintaining time ([1]; rats)	C8h/APTT × 2 ([1]; rats, 1 mg/kg per os)	IC50 [2] [nM]	Plasma concentration C8h [1, 3]
Nc1ccc(-c2cnc([C@@H]3CCc4cc(-c5cc(Cl)ccc5-n5cnnn5)cc(=O)n43)[nH]2)c(F)n1 [Comparative Example 1 (1), (3S)-3-[5-(6-amino-2-fluoro-3-pyridinyl)-1H-imidazol-2-yl]-7-[5-chloro-2-(1H-tetrazol-1-yl)phenyl]-2,3-dihydro-5(1H)-indolizinone]	1.2	170	4.7	0* h	0.15		
Nc1ccc(-c2[nH]c([C@@H]3CCc4cc(-c5cc(Cl)ccc5-n5cnnn5)cc(=O)n43)nc2Cl)c(F)n1 [Comparative Example 1 (2), (3S)-3-[5-(6-amino-2-fluoro-3-pyridinyl)-4-chloro-1H-imidazol-2-yl]-7-[5-chloro-2-(1H-tetrazol-1-yl)phenyl]-2,3-dihydro-5(1H)-indolizinone]	1.8	26	0.69	0* h	0.014	4.8	
Nc1ccc(-c2[nH]c([C@@H]3CCc4cc(-c5cc(Cl)ccc5-n5cnnn5)cc(=O)n43)nc2F)cn1 [Comparative Example 1 (3), (3S)-3-[5-(6-amino-3-pyridinyl)-4-fluoro-1H-imidazol-2-yl]-7-[5-chloro-2-(1H-tetrazol-1-yl)phenyl]-2,3-dihydro-5(1H)-indolizinone]	0.55	81	1.7	<1 h	0.15	1.4	
Nc1ccc(-c2ncc([C@@H]3CCc4cc(-c5cc(Cl)ccc5-n5cnnn5)cc(=O)n43)[nH]2)c(F)n1 [Comparative Example 2 (1), (3S)-3-[2-(6-amino-2-fluoro-3-pyridinyl)-1H-imidazol-5-yl]-7-[5-chloro-2-(1H-tetrazol-1-yl)phenyl]-2,3-dihydro-5(1H)-indolizinone]	4.0		0.056	0* h		19	BLQ*
Nc1ccc(-c2nc(Cl)c([C@@H]3CCc4cc(-c5cc(Cl)ccc5-n5cnnn5)cc(=O)n43)[nH]2)c(F)n1 [Comparative Example 2 (3), (3S)-3-[2-(6-amino-2-fluoro-3-pyridinyl)-4-chloro-1H-imidazol-5-yl]-7-[5-chloro-2-(1H-tetrazol-1-yl)phenyl]-2,3-dihydro-5(1H)-indolizinone]	2.1	1100	23	<2 h	0.52	4.4	
Nc1ccc(-c2nc(F)c([C@@H]3CCc4cc(-c5cc(Cl)ccc5-n5cnnn5)cc(=O)n43)[nH]2)cn1 [Comparative Example 2 (5), (3S)-3-[2-(6-Amino-3-Pyridinyl)-4-Fluoro-1H-Imidazol-5-Yl]-7-[5-Chloro-2-(1H-Tetrazol-1-Yl)Phenyl]-2,3-Dihydro-5(1H)-Indolizinone]	0.21	73	1.6	<2 h	0.34	1.6	
COC(=O)Nc1ccc(-c2nc(Cl)c([C@@H]3CCc4nc(-c5cc(Cl)ccc5-n5cnnn5)cc(=O)n43)[nH]2)cc1 [Comparative Example 3 (1), methyl[4-(4-chloro-5-{(6S)-2-[5-chloro-2-(1H-tetrazol-1-yl)phenyl]-4-oxo-4,6,7,8-tetrahydropyrrolo[1,2-a]pyrimidin-6-yl}-1H-imidazol-2-yl)phenyl]carbamate]	0.64	180	4.2	<2 h	0.29	1.6	
Nc1ccc(-c2[nH]c([C@@H]3CCc4nc(-c5cc(Cl)ccc5-n5cnnn5)cc(=O)n43)nc2Cl)c(F)n1 [Comparative Example 3 (2), (6S)-6-[5-(6-amino-2-fluoro-3-pyridinyl)-4-chloro-1H-imidazol-2-yl]-2-[5-chloro-2-(1H-tetrazol-1-yl)phenyl]-7,8-dihydropyrrolo[1,2-a]pyrimidin-4(6H)-one]	3.7	27	1.4	0* h	0.0073	11	
N#Cc1cn(-c2ccc(Cl)cc2-c2cc3n(c(=O)c2)[C@H](c2nc(Cl)c(-c4ccc(N)nc4)[nH]2)CC3)nn1 [Comparative Example 4, 1-(2-{(3S)-3-[5-(6-amino-3-pyridinyl)-4-chloro-1H-imidazol-2-yl]-5-oxo-1,2,3,5-tetrahydro-7-indolizinyl}-4-chlorophenyl)-1H-1,2,3-triazole-4-carbonitrile]	2.0	350	8.4	0* h	0.18	2.7	
Nc1ccc(-c2[nH]c([C@@H]3CCc4cc(-c5cc(Cl)ccc5-n5cnnn5)cc(=O)n43)nc2F)c(F)n1 [Example 1 (6), (3S)-3-[5-(6-Amino-2-Fluoro-3-Pyridinyl)-4-Fluoro-1H-Imidazol-2-Yl]-7-[5-Chloro-2-(1H-Tetrazol-1-Yl)Phenyl]-2,3-Dihydro-5(1H)-Indolizinone]	0.80	880	33	>8 h	1.1	1.7	
Nc1ccc(-c2nc(F)c([C@@H]3CCc4cc(-c5cc(Cl)ccc5-n5cnnn5)cc(=O)n43)[nH]2)c(F)n1 [Example 2 (10), (3S)-3-[2-(6-Amino-2-Fluoro-3-Pyridinyl)-4-Fluoro-1H-Imidazol-5-Yl]-7-[5-Chloro-2-(1H-Tetrazol-1-Yl)Phenyl]-2,3-Dihydro-5(1H)-Indolizinone]	0.49	1000	15	>8 h	2.1	1.7	
Nc1ccc(-c2nc(F)c([C@@H]3CCc4nc(-c5cc(Cl)ccc5-n5cnnn5)cc(=O)n43)[nH]2)c(F)n1 [Example 3 (4), (6S)-6-[2-(6-Amino-2-Fluoro-3-Pyridinyl)-4-Fluoro-1H-Imidazol-5-Yl]-2-[5-Chloro-2-(1H-Tetrazol-1-Yl)Phenyl]-7,8-Dihydropyrrolo[1,2-a]Pyrimidin-4(6H)-One]	0.47	1600	28	>8 h	3.4	1.9	

Source: US10815233B2, “Dihydroindolizinone derivative” (ONO PHARMACEUTICAL CO., LTD., priority 2014, dated 2020)
